Activity calls are given as the source filed them. No cut-off for these calls is given here.
Tests used:
[1] = Metabolic stability in mouse liver microsomes assessed as parent compound remaining at 5 uM in presence of NADPH-generating system measured for 30 mins by LC/MS analysis; type: ADME, Microsome; settings: read-out: Stability
[2] = target: T1, CDGSH iron-sulfur domain-containing protein 2 (Homo sapiens, UniProt Q8N5K1); assay: Activation of Cisd2 (unknown origin) transfected in HEK293 cells incubated for 24 hrs by one-glo luciferase assay; type: cell-based
T1 sequence (Q8N5K1 whole entry): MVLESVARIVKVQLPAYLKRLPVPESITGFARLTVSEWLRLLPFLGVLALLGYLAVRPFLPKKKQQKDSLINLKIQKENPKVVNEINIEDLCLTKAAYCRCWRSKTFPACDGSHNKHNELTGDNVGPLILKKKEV

Mus musculus [3] = assay: Anti-NAFLD activity in heterozygous hepatocyte-specific Cisd2 knockout C57BL/6 mouse assessed as reduction in accumulation of fat in liver at 20 mg/kg, po measured for 2 weeks by oil red-O staining based analysis; type: functional, organism-based
Mus musculus [4] = assay: Anti-NAFLD activity in wild type C57BL/6 mouse assessed as fold increase in Cisd2 expression in liver at 20 mg/kg, po measured for 12 week by Western blot analysis; type: functional; settings: time 12 weeks
[5] = Toxicity in heterozygous hepatocyte-specific Cisd2 knockout C57BL/6 mouse assessed as effect on AST level in serum at 20 mg/kg, po administered for 2 weeks; type: organism-based; settings: in vivo, 336 h
[6] = Toxicity in wild type C57BL/6 mouse assessed as effect on BUN level in serum at 20 mg/kg, po administered for 2 weeks; type: organism-based; settings: in vivo, 336 h
[7] = Toxicity in wild type C57BL/6 mouse assessed as change in liver histology at 20 mg/kg, po administered for 2 weeks; type: organism-based; settings: in vivo, 336 h
[8] = Toxicity in heterozygous hepatocyte-specific Cisd2 knockout C57BL/6 mouse assessed as effect on GPT level in serum at 20 mg/kg, po administered for 2 weeks; type: organism-based; settings: in vivo, 336 h
[9] = Toxicity in wild type C57BL/6 mouse assessed as effect on CRE level in serum at 20 mg/kg, po administered for 2 weeks; type: organism-based; settings: in vivo, 336 h
Mus musculus [10] = assay: Anti-NAFLD activity in wild type C57BL/6 mouse assessed as effect on triglyceride level in serum at 20 mg/kg, po measured for 12 week; type: functional, organism-based; settings: time 12.0 weeks
Mus musculus [11] = assay: Anti-NAFLD activity in heterozygous hepatocyte-specific Cisd2 knockout C57BL/6 mouse assessed as reduction in ballooning degeneration of hepatocytes at 20 mg/kg, po measured for 2 weeks by H and E staining based analysis; type: functional, organism-based
[12] = Toxicity in wild type C57BL/6 mouse assessed as effect on GPT level in serum at 20 mg/kg, po administered for 2 weeks; type: organism-based; settings: in vivo, 336 h
[13] = Toxicity in wild type C57BL/6 mouse assessed as effect on AST level in serum at 20 mg/kg, po administered for 2 weeks; type: organism-based; settings: in vivo, 336 h
[14] = Toxicity in heterozygous hepatocyte-specific Cisd2 knockout C57BL/6 mouse assessed as effect on body weight at 20 mg/kg, po measured for 2 weeks; type: organism-based; settings: in vivo, 336 h
Mus musculus [15] = assay: Anti-NAFLD activity in heterozygous hepatocyte-specific Cisd2 knockout C57BL/6 mouse assessed as effect on triglyceride level in serum at 20 mg/kg, po measured for 12 week; type: functional, organism-based; settings: time 12.0 weeks
[16] = Toxicity in wild type C57BL/6 mouse assessed as effect on ALT level in serum at 20 mg/kg, po administered for 2 weeks; type: organism-based; settings: in vivo, 336 h
[17] = Toxicity in heterozygous hepatocyte-specific Cisd2 knockout C57BL/6 mouse assessed as effect on CRE level in serum at 20 mg/kg, po administered for 2 weeks; type: organism-based; settings: in vivo, 336 h
[18] = Toxicity in heterozygous hepatocyte-specific Cisd2 knockout C57BL/6 mouse assessed as effect on GOT level in serum at 20 mg/kg, po administered for 2 weeks; type: organism-based; settings: in vivo, 336 h
[19] = Toxicity in heterozygous hepatocyte-specific Cisd2 knockout C57BL/6 mouse assessed as effect on BUN level in serum at 20 mg/kg, po administered for 2 weeks; type: organism-based; settings: in vivo, 336 h
[20] = Toxicity in wild type C57BL/6 mouse assessed as effect on body weight at 20 mg/kg, po measured for 2 weeks; type: organism-based; settings: in vivo, 336 h
[21] = Toxicity in heterozygous hepatocyte-specific Cisd2 knockout C57BL/6 mouse assessed as effect on ALT level in serum at 20 mg/kg, po administered for 2 weeks; type: organism-based; settings: in vivo, 336 h
Mus musculus [22] = assay: Anti-NAFLD activity in heterozygous hepatocyte-specific Cisd2 knockout C57BL/6 mouse assessed as fold increase in Cisd2 expression in liver at 20 mg/kg, po measured for 12 week by Western blot analysis; type: functional; settings: time 12 weeks
[23] = Toxicity in wild type C57BL/6 mouse assessed as effect on GOT level in serum at 20 mg/kg, po administered for 2 weeks; type: organism-based; settings: in vivo, 336 h
[24] = Toxicity in wild type C57BL/6 mouse assessed as food intake at 20 mg/kg, po measured for 5 consecutive days; type: organism-based; settings: in vivo, 120 h, time 5 day
Mus musculus [25] = assay: Anti-NAFLD activity in heterozygous hepatocyte-specific Cisd2 knockout C57BL/6 mouse assessed as reduction in hepatic steatosis in liver at 20 mg/kg, po measured for 2 weeks by H and E staining based analysis; type: functional, organism-based
Mus musculus [26] = assay: Anti-NAFLD activity in heterozygous hepatocyte-specific Cisd2 knockout C57BL/6 mouse assessed as abnormal hepatic lipid accumulation in liver at 20 mg/kg, po measured for 2 weeks; type: functional, organism-based

COC(=O)c1c(N)sc(C(=O)Nc2cccc(C)c2)c1C
remaining at 0.5 h, 5 µM [1]: 53.8% | EC50 [2]: 35 nM

CC(=O)c1c(N)sc(C(=O)Nc2ccccc2)c1C
EC50 [2]: 553 nM

COC(=O)c1c(N)sc(C(=O)Nc2cccc(OC)c2)c1C
remaining at 0.5 h, 5 µM [1]: 59.2% | EC50 [2]: 23 nM

COC(=O)c1c(N)sc(C(=O)Nc2ccc(C)cc2C)c1C
remaining at 0.5 h, 5 µM [1]: 27.6% | EC50 [2]: 46 nM

COC(=O)c1c(N)sc(C(=O)Nc2c(C)cc(C)cc2C)c1C
EC50 [2]: 1700 nM

COC(=O)c1c(N)sc(C(=O)Nc2ccccc2C)c1C
remaining at 0.5 h, 5 µM [1]: 53.3% | EC50 [2]: 233 nM

CCOC(=O)c1c(N)sc(C(=O)Nc2ccc(C)cc2C)c1C
remaining at 0.5 h, 5 µM [1]: 60.6% | EC50 [2]: 197 nM

COC(=O)c1c(N)sc(C(=O)Nc2ccc(OC)cc2)c1C
remaining at 0.5 h, 5 µM [1]: 73.6% | EC50 [2]: 12 nM

COC(=O)c1c(N)sc(C(=O)Nc2ccccc2)c1C
remaining at 0.5 h, 5 µM [1]: 63.5% | EC50 [2]: 95 nM

COC(=O)c1sccc1NC(=O)c1sc(N)c(C(=O)OC)c1C
EC50 [2]: > 10000 nM

CNc1sc(C(=O)Nc2ccc(C)cc2C)c(C)c1C(=O)OC
EC50 [2]: > 10000 nM

Cc1ccc(NC(=O)c2sc(N)c(C(=O)OCc3ccccc3)c2C)c(C)c1
EC50 [2]: > 10000 nM

COC(=O)c1c(N)sc(C(=O)Nc2nc3ccccc3s2)c1C
EC50 [2]: > 10000 nM

Cc1ccc(NC(=O)c2sc(N)c(C(=O)NCC#N)c2C)c(C)c1
EC50 [2]: 1590 nM

Cc1ccc(NC(=O)c2sc(N)c(C(N)=O)c2C)c(C)c1
EC50 [2]: 979 nM

Cc1ccc(NC(=O)c2sc(N)c(C(=O)OC(C)(C)C)c2C)c(C)c1
EC50 [2]: 1340 nM

COC(=O)c1c(N)sc(C(=O)Nc2cc(OC)c(OC)c(OC)c2)c1C
EC50 [2]: 2180 nM

COC(=O)c1c(N)sc(C(=O)Nc2ccc(O)cc2)c1C
Activity (Mus musculus [3]): Active | fold change (FC) (Mus musculus [4]): 1.3 | Activity [5]: Non-Toxic | Activity [6]: Non-Toxic | Activity [7]: Non-Toxic | Activity [8]: Non-Toxic | remaining at 0.5 h, 5 µM [1]: 91.8% | Activity [9]: Non-Toxic | Activity (Mus musculus [10]): Active | Activity (Mus musculus [11]): Active | Activity [12]: Non-Toxic | Activity [13]: Non-Toxic | Activity [14]: Non-Toxic | Activity (Mus musculus [15]): Active | Activity [16]: Non-Toxic | Activity [17]: Non-Toxic | Activity [18]: Non-Toxic | Activity [19]: Non-Toxic | Activity [20]: Non-Toxic | Activity [21]: Non-Toxic | EC50 [2]: 191 nM | fold change (FC) (Mus musculus [22]): 2 | Activity [23]: Non-Toxic | Activity [24]: Non-Toxic | Activity (Mus musculus [25]): Active | Activity (Mus musculus [26]): Active

CC(=O)c1c(N)sc(C(=O)Nc2ccc(F)cc2)c1C
remaining at 0.5 h, 5 µM [1]: 49.2% | EC50 [2]: 160 nM

COC(=O)c1c(N)sc(C(=O)Nc2nccs2)c1C
remaining at 0.5 h, 5 µM [1]: 44.5% | EC50 [2]: 153 nM

Cc1ccc(NC(=O)c2sc(N)c(C(=O)OC(C)C)c2C)c(C)c1
EC50 [2]: 1520 nM

COC(=O)c1c(N)sc(C(=O)Nc2ccccc2OC)c1C
EC50 [2]: 3070 nM

COC(=O)c1c(N)sc(C(=O)Nc2ccc(C)cc2)c1C
remaining at 0.5 h, 5 µM [1]: 73.2% | EC50 [2]: 10 nM

COC(=O)c1c(N)sc(C(=O)Nc2cccnc2)c1C
EC50 [2]: 661 nM

Cc1ccc(NC(=O)c2sc(N)c(C(=O)O)c2C)c(C)c1
EC50 [2]: 296 nM

CC(=O)c1c(N)sc(C(=O)Nc2ccc(C)cc2C)c1C
remaining at 0.5 h, 5 µM [1]: 0% | EC50 [2]: 164 nM

COC(=O)c1c(N)sc(C(=O)Nc2ccc(F)cc2)c1C
Activity (Mus musculus [3]): Active | fold change (FC) (Mus musculus [4]): 1.3 | Activity [5]: Non-Toxic | Activity [6]: Non-Toxic | Activity [7]: Non-Toxic | Activity [8]: Non-Toxic | remaining at 0.5 h, 5 µM [1]: 84.9% | Activity [9]: Non-Toxic | Activity (Mus musculus [10]): Active | Activity (Mus musculus [11]): Active | Activity [12]: Non-Toxic | Activity [13]: Non-Toxic | Activity [14]: Non-Toxic | Activity (Mus musculus [15]): Active | Activity [16]: Non-Toxic | Activity [17]: Non-Toxic | Activity [18]: Non-Toxic | Activity [19]: Non-Toxic | Activity [20]: Non-Toxic | Activity [21]: Non-Toxic | EC50 [2]: 34 nM | fold change (FC) (Mus musculus [22]): 2 | Activity [23]: Non-Toxic | Activity [24]: Non-Toxic | Activity (Mus musculus [25]): Active | Activity (Mus musculus [26]): Active

COC(=O)c1c(N)sc(C(=O)Nc2ccc(N(C)C)cc2)c1C
remaining at 0.5 h, 5 µM [1]: 54.7% | EC50 [2]: 35 nM

Cc1ccc(NC(=O)c2sc(N)c(C(=O)CO)c2C)c(C)c1
EC50 [2]: 809 nM

COC(=O)c1cc(C(=O)Nc2ccc(C)cc2C)sc1N
EC50 [2]: 2080 nM

COC(=O)c1c(N)sc(C(=O)Nc2ccc(C(F)(F)F)cc2)c1C
EC50 [2]: 252 nM

COC(=O)c1c(NC(C)=O)sc(C(=O)Nc2ccc(C)cc2C)c1C
EC50 [2]: 4440 nM

Cc1ccc(NC(=O)c2sc(N)c(C#N)c2C)c(C)c1
EC50 [2]: 2670 nM

COC(=O)c1c(N)sc(C(=O)Nc2ccc(C#N)cc2)c1C
remaining at 0.5 h, 5 µM [1]: 83.7% | EC50 [2]: 82 nM
